Data taken from ChEMBL document CHEMBL1201862, “PubChem BioAssay data set” (2004).
Active and inactive are the calls of the source.

Tests used:
Cytochrome P450 3A4 = Cytochrome P450 3A4 (Homo sapiens, UniProt P08684);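 also: CYP3A4 tested as one member of a cytochrome P450 panel screen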
[1] = target: Type-1 angiotensin II receptor (Homo sapiens, UniProt P30556); experiment: agonist activity at AGTR1 – cell-based, uHTS hits, selectivity assay for APJ receptor agonist project, dose response (AID 488865); type: functional;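 also: beta-arrestin recruitment to AT1 measured by enzyme fragment complementation luminescence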
[2] = target: T1, Intestinal-type alkaline phosphatase (Mus musculus, UniProt P24822); experiment: PubChem AID 488875; type: functional
[3] = target: T1, Intestinal-type alkaline phosphatase; experiment: PubChem AID 488874; type: functional
[4] = target: T2, Alkaline phosphatase, tissue-nonspecific isozyme (Homo sapiens, UniProt P05186); experiment: activation of tissue-nonspecific alkaline phosphatase – biochemical, TNAP isozyme, human IAP uHTS hits, selectivity assay for human IAP activator project, dose response (AID 488886); type: functional;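 also: potency of compounds raising TNAP activity as a selectivity check on IAP activators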
T2 sequence (P05186 whole entry): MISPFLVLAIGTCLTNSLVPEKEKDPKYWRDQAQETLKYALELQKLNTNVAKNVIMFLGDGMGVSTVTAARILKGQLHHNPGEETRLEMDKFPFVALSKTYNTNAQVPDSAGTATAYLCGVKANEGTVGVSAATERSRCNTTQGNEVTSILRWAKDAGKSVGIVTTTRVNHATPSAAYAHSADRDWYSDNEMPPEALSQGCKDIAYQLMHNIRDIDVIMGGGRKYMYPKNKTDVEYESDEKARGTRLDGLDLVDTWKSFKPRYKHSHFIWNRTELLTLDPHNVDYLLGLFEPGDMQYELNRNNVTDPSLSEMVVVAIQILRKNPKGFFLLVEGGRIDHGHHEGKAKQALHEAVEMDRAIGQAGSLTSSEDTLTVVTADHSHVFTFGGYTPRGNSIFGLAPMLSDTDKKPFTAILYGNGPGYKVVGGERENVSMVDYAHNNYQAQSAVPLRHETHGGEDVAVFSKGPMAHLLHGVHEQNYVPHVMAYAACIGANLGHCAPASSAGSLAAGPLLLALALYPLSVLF

[5] = target: T3, Intestinal-type alkaline phosphatase (Homo sapiens, UniProt P09923); experiment: activation of human intestinal alkaline phosphatase – biochemical, luminescent, uHTS hits, set 2, dose response (AID 488817); type: functional;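 also: potency of activators that raise enzyme activity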
[6] = target: T3, Intestinal-type alkaline phosphatase; experiment: human intestinal alkaline phosphatase activators, dose response, biochemical, luminescence, uHTS hits (AID 463120); type: functional
[7] = target: 1-acylglycerol-3-phosphate O-acyltransferase ABHD5/Perilipin-5 (Homo sapiens, UniProt Q00G26+Q8WTS1); experiment: Luminescence-based biochemical high throughput dose response assay for inhibitors of the interaction of the lipase co-activator protein, abhydrolase domain containing 5 (ABHD5) with perilipin-5 (MLDP; PLIN5) (2K validation set). [Related pubchem assays (depositor defined):AID493035, AID493241]
Perilipin-1/ABHD5 = Perilipin-1/ABHD5 (Homo sapiens, UniProt O60240+Q8WTS1); experiment: Luminescence-based biochemical high throughput dose response assay for inhibitors of the interaction of the lipase co-activator protein, abhydrolase domain containing 5 (ABHD5) with perilipin-1 (PLIN1) (2K validation set). [Related pubchem assays (depositor defined):AID493027, AID493057]
Mucolipin-3 = target: T4, Mucolipin-3 (Homo sapiens, UniProt Q8TDD5); experiment: Fluorescence counterscreen assay for […] agonists: dose response cell-based high-throughput screening assay to identify agonists of the transient receptor potential channel ML3 (TRPML3). [Related pubchem assays: 1424, 1448 ]; type: functional
T4 sequence (Q8TDD5 whole entry): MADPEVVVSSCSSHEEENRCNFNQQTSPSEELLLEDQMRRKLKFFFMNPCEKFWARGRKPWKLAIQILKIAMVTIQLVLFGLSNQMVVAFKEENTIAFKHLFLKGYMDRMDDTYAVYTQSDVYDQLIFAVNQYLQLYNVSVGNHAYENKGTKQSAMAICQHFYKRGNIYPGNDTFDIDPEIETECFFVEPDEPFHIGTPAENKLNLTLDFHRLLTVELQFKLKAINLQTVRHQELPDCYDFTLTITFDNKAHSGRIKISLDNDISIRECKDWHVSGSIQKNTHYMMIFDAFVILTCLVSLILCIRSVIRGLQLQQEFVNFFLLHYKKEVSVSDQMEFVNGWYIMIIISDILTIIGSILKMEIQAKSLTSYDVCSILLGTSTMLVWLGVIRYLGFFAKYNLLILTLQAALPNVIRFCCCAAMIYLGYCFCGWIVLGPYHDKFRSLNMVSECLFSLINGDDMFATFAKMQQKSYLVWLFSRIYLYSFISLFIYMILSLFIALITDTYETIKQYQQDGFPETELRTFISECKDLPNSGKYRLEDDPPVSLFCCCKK

Ion channel NompC = Ion channel NompC (Danio rerio, UniProt Q7T1G6); experiment: Dose response cell-based high-throughput screening assay for agonists of the transient receptor potential channel N1 (TRPN1). [Related pubchem assays (depositor defined):AID1424, AID1448]; type: functional
[8] = target: G-protein coupled receptor 55 (Homo sapiens, UniProt Q9Y2T6); experiment: selective activators of receptor GPR55 – imaging, U2OS cells, beta-arrestin-GFP redistribution, primary screen (AID 1961); type: functional
[9] = target: Sphingosine 1-phosphate receptor 4 (Homo sapiens, UniProt O95977); experiment: potency of S1P4 activators – cell-based, fluorescence, synthesized compounds, late-stage follow-up (AID 463107); type: functional
[10] = target: T5, Short transient receptor potential channel 4 (Mus musculus, UniProt Q9QUQ5); experiment: potentiation of DAMGO-evoked TRPC4 calcium signal – cell-based, HEK293 TRPC4/mu-opioid, Fluo-4 calcium, EC20 DAMGO, dose response (AID 434941); type: functional
T5 sequence (Q9QUQ5 whole entry): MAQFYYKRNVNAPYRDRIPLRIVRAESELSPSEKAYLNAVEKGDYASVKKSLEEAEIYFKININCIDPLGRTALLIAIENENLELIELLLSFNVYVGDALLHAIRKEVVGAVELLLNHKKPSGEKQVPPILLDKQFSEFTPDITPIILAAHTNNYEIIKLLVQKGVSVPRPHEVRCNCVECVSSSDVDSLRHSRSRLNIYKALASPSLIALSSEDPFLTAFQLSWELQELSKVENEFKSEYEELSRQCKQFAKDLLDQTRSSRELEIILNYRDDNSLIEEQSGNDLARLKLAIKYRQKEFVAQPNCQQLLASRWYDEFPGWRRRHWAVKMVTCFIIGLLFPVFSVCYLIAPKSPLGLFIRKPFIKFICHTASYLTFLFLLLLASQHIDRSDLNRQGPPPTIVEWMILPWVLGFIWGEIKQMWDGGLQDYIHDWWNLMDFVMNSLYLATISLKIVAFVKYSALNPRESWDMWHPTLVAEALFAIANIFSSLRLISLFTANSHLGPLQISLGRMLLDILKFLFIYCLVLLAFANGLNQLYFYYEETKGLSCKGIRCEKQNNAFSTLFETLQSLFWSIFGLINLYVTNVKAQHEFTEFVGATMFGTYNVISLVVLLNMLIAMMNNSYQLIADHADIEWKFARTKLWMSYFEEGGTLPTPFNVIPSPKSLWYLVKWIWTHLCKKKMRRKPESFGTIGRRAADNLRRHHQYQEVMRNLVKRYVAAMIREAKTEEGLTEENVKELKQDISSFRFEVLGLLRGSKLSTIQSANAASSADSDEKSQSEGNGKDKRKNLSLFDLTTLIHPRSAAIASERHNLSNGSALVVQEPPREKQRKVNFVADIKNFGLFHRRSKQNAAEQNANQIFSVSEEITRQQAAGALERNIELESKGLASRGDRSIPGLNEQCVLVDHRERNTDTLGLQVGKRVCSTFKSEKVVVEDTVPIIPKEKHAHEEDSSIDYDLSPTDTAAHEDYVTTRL

Troponin, cardiac muscle = Troponin, cardiac muscle (Homo sapiens, UniProt P19429+P45379+P63316); experiment: Fluorescence-based biochemical high throughput dose response assay for activators of the calcium sensitivity of cardiac Regulated Thin Filaments (RTF). [Related pubchem assays (depositor defined):AID493008, AID493018, AID504382, AID504383]; type: protein-complex assay
HeLa = experiment: Cytotoxicity counterscreen assay for transcriptional activators of heat shock protein 70 (Hsp70). [Related pubchem assays: 1203, 1252 ]; type: functional; conditions: Homo sapiens
Wee1-like protein kinase = Wee1-like protein kinase (Homo sapiens, UniProt P30291); experiment: Dose Response Cell-based Assay for Inhibitors of Wee1 Degradation. [Related pubchem assays: 1410, 1321 ]; type: functional
[11] = non-specific 3'UTR reporter inhibition in Clone20-Shn3RL – cell-based, Renilla luciferase, cherry-picked, counter-screen for Shn3 inhibitor project, dose response (AID 624133); type: functional
[12] = blockade of melanocortin 4 receptor signaling – cell-based, plate reader, cherry pick, counter-screen for LGR2 antagonist project, dose response (AID 743444); type: functional;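 also: transfected HEK 293 cells stimulated with alpha-MSH peptide; potency of inhibitors of the alpha-MSH evoked signal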
[13] = A549 cell cytotoxicity, dose response, cytotoxicity control, plate reader, cherry-pick, antagonist series (AID 743412); type: functional, cell-based
[14] = HEK-293T viability loss after treatment – luminescence, T-cell screen hits, cytotoxicity control for TCR NF-kB inhibitor project, dose response (AID 489026); type: functional, cell-based;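 also: cells exposed to compound about 14 hours before the viability readout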
[15] = blockers of bursicon-stimulated LGR2 cAMP reporter – cell-based, HEK293, CRE-luciferase reporter, cherry pick, set 2, dose response (AID 743343); type: functional;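 also: transfected cells were stimulated with diluted bursicon conditioned medium after compound addition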
[16] = reduction of Shn3 3'UTR-driven luciferase in osteoblasts – cell-based, Clone20 osteoblasts, firefly luciferase, cherry-picked, dose response (AID 624132); type: functional;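 also: firefly luciferase luminescence from reporter carrying the Shn3 3'UTR in osteoblasts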
[17] = THP-1 cell cytotoxicity, dose response, cytotoxicity control for non-replicating M. tuberculosis project (AID 489025); type: functional
[18] = target: G2/mitotic-specific cyclin-B1 (Homo sapiens, UniProt P14635); experiment: Counterscreen assay for inhibitors of Wee1 degradation: dose response cell-based assay to identify inhibitors of cyclin B degradation. [Related pubchem assays: 1410, 1321 ]; type: functional
[19] = loss of viability in HepG2 cells – cell-based, CellTiter-Glo, cherry-picked, cytotoxicity control for Shn3 inhibitor project, dose response (AID 624134); type: functional
cells = type: functional
[20] = Vero E6 cell cytotoxicity, dose response, cytotoxicity control for non-replicating M. tuberculosis project, secondary assay (AID 492998); type: functional, VeroE6; conditions: Vero C1008
[21] = viability loss in HEK293 cells – cell-based, plate reader, cherry-picked samples, cytotoxicity control, dose response (AID 743446); type: functional
[22] = target: T6, Heat shock factor protein 1 (Mus musculus, UniProt P38532); experiment: decrease of HSF1-responsive luciferase luminescence – cell-based, NIH3T3, dose retest, confirmation (AID 2382); type: functional;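 also: NIH3T3 fibroblasts with HSF1-driven luciferase reporter stressed by proteasome inhibitor MG132; luminescence from HSF1-driven luciferase expression after 8 hours of MG132 stress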
T6 sequence (P38532 whole entry): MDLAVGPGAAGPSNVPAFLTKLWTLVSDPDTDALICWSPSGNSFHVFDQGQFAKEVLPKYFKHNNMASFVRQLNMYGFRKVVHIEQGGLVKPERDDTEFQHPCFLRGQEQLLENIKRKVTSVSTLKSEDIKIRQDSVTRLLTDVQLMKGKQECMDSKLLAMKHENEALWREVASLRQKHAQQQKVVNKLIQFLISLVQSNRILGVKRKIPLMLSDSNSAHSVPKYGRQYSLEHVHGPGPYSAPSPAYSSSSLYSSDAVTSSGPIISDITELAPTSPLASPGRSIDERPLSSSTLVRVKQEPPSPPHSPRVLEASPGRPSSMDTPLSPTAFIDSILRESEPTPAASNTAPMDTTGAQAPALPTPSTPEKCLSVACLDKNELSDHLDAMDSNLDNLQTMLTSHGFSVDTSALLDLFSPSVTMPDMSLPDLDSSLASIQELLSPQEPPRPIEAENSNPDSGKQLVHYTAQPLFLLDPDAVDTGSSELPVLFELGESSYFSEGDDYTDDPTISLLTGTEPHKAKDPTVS

[23] = HepG2 cell cytotoxicity, dose response, cytotoxicity control for non-replicating M. tuberculosis project (AID 489018); type: functional; conditions: Mycobacterium tuberculosis
[24] = toxicity toward HepG2 liver cells – cell-based, plate reader, cherry-pick, antagonist series, cytotoxicity control, dose response (AID 743416); type: functional

T1 sequence (P24822 whole entry): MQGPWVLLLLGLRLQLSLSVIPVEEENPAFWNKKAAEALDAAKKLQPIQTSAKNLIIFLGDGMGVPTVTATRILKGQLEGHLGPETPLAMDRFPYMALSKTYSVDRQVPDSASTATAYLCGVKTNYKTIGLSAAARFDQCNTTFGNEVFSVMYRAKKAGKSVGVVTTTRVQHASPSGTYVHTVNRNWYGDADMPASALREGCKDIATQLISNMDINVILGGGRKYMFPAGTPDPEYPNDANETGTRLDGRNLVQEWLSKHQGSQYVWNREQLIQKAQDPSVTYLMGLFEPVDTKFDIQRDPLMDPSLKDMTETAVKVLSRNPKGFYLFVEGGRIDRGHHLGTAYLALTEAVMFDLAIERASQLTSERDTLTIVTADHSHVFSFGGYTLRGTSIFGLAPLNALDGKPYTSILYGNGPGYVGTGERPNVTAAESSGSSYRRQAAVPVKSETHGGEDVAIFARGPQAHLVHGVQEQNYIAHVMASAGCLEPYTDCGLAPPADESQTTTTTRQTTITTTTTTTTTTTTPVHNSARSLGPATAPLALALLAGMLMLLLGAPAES
T3 sequence (P09923 whole entry): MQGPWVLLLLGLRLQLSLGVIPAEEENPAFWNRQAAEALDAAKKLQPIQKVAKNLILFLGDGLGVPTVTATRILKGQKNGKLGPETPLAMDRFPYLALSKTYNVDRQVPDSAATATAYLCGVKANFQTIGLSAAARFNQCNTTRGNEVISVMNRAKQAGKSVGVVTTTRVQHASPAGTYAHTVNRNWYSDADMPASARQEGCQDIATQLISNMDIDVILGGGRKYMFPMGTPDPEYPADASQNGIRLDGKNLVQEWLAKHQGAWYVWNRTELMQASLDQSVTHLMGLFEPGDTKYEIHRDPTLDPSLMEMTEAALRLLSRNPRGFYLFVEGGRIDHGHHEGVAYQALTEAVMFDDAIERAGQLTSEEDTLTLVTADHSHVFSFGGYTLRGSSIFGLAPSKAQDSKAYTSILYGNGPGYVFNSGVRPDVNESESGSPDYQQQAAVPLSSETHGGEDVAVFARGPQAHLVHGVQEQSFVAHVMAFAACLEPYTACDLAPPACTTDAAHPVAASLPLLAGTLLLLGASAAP
Sequence of Sphingosine 1-phosphate receptor 4 (O95977 whole entry): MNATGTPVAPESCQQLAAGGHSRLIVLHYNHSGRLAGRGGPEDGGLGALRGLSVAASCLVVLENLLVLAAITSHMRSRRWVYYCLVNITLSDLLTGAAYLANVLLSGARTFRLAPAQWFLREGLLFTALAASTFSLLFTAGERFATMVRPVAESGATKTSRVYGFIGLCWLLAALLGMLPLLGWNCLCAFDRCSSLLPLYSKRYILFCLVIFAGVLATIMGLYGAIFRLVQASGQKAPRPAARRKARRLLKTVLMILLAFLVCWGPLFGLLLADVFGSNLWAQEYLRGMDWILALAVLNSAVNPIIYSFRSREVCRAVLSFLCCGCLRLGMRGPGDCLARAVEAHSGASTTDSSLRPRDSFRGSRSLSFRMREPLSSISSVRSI
Sequence of Cytochrome P450 3A4 (P08684 whole entry, the tested form may be a part): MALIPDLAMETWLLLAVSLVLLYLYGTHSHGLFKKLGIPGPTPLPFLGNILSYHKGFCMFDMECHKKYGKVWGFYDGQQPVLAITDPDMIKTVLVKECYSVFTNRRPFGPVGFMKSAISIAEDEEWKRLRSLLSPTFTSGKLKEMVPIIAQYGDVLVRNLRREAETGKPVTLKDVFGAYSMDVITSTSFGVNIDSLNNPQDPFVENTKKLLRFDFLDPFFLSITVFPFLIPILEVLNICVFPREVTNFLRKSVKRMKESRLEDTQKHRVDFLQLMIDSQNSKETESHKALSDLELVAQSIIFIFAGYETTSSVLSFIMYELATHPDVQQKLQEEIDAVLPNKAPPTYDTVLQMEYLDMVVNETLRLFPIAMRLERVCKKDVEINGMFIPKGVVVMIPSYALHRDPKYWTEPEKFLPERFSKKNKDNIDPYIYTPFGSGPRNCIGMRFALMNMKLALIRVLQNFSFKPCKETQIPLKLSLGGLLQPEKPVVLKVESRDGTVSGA
Sequence of G2/mitotic-specific cyclin-B1 (P14635 whole entry): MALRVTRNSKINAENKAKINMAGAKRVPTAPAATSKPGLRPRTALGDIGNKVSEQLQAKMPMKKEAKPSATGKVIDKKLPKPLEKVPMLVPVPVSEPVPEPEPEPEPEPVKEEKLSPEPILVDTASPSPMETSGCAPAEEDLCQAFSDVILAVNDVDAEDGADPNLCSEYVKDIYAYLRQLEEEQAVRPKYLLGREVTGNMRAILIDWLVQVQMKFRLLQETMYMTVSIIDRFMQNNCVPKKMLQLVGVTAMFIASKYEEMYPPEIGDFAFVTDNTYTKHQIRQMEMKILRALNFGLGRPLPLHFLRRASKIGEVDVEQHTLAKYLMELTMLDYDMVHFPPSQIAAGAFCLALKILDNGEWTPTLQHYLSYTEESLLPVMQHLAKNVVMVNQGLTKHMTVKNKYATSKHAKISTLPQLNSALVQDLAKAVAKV
Sequence of Perilipin-1/ABHD5 (Q8WTS1 whole entry, the tested form may be a part): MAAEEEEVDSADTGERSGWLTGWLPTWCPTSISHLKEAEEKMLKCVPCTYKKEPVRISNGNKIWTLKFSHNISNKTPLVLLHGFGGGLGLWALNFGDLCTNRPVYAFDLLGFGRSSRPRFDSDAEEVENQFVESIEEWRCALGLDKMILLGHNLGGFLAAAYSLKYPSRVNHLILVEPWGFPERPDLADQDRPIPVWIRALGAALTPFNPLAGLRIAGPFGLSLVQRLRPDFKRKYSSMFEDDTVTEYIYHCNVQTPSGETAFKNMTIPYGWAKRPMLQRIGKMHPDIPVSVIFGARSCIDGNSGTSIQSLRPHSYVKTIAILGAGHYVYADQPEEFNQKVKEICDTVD
Sequence of Perilipin-1/ABHD5 (O60240 whole entry, the tested form may be a part): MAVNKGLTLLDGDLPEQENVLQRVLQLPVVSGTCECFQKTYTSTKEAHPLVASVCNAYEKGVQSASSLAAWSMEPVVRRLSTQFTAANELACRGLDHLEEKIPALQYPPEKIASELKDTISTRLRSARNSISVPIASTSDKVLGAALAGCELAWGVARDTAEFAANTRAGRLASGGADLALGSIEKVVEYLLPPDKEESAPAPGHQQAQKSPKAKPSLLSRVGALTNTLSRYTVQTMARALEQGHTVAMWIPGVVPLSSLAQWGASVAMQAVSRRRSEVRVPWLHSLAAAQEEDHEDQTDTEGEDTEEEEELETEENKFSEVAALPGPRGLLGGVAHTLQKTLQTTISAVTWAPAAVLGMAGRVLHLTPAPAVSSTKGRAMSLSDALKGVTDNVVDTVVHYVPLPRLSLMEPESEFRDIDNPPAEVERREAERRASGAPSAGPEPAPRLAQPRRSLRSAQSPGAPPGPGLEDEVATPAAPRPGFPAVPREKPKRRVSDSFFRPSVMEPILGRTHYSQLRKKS
Sequence of Ion channel NompC (Q7T1G6 whole entry): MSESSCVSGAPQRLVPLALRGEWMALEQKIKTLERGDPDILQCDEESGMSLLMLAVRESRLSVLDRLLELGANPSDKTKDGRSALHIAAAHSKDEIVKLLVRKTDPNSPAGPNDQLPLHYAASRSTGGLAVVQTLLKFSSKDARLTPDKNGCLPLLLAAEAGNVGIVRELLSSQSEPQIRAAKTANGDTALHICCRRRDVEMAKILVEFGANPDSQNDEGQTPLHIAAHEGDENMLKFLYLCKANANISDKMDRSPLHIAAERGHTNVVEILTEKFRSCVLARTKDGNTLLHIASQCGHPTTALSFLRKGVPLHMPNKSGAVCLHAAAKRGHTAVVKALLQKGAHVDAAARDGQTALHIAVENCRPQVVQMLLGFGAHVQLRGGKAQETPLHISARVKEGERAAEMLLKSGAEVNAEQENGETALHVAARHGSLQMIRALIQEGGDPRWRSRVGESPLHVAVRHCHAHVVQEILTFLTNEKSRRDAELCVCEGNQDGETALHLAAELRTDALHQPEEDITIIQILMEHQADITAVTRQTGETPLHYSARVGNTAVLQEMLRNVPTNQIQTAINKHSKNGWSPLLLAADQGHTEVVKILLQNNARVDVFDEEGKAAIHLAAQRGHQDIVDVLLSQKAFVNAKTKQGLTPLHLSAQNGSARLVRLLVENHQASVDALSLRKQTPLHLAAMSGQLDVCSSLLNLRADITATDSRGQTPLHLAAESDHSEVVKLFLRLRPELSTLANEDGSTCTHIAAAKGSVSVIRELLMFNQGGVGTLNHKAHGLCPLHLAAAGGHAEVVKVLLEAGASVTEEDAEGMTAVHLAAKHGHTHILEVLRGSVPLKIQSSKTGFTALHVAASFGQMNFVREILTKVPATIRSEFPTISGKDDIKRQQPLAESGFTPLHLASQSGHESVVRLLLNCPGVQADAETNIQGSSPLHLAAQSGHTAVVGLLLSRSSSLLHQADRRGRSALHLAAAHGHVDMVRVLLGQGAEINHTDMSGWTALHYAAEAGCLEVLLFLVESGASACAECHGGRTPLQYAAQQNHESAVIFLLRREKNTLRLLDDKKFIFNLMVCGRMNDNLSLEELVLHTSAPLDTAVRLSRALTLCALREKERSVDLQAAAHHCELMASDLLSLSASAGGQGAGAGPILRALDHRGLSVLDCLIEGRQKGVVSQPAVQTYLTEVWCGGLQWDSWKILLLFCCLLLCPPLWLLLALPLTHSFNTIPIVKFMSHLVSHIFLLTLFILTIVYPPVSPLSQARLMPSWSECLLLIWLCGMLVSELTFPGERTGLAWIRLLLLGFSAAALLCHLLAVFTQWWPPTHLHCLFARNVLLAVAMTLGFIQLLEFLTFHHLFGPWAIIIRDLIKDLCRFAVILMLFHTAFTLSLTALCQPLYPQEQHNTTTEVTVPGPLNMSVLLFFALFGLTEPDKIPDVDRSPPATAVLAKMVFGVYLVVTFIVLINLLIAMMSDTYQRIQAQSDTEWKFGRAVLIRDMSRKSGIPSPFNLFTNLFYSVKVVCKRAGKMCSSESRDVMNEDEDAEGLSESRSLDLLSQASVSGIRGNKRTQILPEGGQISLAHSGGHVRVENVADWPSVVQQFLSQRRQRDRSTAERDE

## CCOc1cc2[nH]c(=S)n(CCC(=O)N3CCc4ccccc4C3)c(=O)c2cc1OCC
Cytochrome P450 3A4
  AC50: 3.55 µM (inconclusive)
[1]
  EC50: > 100 µM (inactive)

## CC(NS(=O)(=O)c1ccc(Br)cc1)C(=O)Nc1nc2ccccc2[nH]1 (configuration not stated)
[2]
  EC50: > 100 µM (inactive)
[3]
  IC50: > 100 µM (inactive)
[4]
  EC50: 14.3 µM (active)
[5]
  EC50: 13.3 µM (active)
[6]
  EC50: 11 µM (active)

## CCOC(=O)C(=Cc1ccccc1OC)C(=O)OCC
[7]
  IC50: 15.3 µM (inactive)
Perilipin-1/ABHD5
  IC50: 11.5 µM (inactive)

## COC(=O)c1cccc(NC(=O)Nc2ccc(Cl)cc2)c1
Mucolipin-3
  EC50: > 29.9 µM (not active)
Ion channel NompC
  EC50: > 29.9 µM (inactive)

## COc1cc(S(=O)(=O)N2CCOCC2)ccc1NC(=O)c1cc2c(s1)CCC2
[8]
  EC50: 2.83 µM (active)

## Cc1ccc(C#N)c(OCCOc2ccc(Cl)cc2Cl)n1
[9]
  EC50: > 50 µM (inactive)

## Cc1cccc(/C=N/NC(=O)c2cccc(Cl)c2)n1
[10]
  EC50: 5.31 µM (active)

## COC(=O)C(=N/Nc1ccccc1C(=O)OC)/C(C)=N/O
Troponin, cardiac muscle
  EC50: > 71.5 µM (inactive)

## O=C1C=CC(O)(c2cc(=O)c3c(O)cc(O)cc3o2)C=C1 [PROTOAPIGENONE]
HeLa
  CC50: > 1.22 µM (not active)
Wee1-like protein kinase
  EC50: > 1.84 µM (active)
[11]
  AC50: 4.47 µM (active)
[12]
  AC50: 27.1 µM (active)
[13]
  AC50: 6.31 µM (active)
[14]
  IC50: > 80 µM (inactive)
[15]
  AC50: 21.4 µM (active)
[16]
  AC50: 5.12 µM (active)
[17]
  CC50: 2.6 µM (active)
[18]
  EC50: > 1.84 µM (active)
[19]
  AC50: 32.3 µM (active)
cells
  IC50: 3.02 µM (active)
[20]
  CC50: 3.28 µM (active)
[21]
  AC50: 5.13 µM (active)
[22]
  EC50: 4.28 µM (active)
[23]
  CC50: 5.74 µM (active)
[24]
  AC50: 7.09 µM (active)
